Data as given in patent US5683987A, “Therapeutic oligonucleotides targeting the human MDR1 and MRP genes” (The Board of Regents of the University of Nebraska, priority 1995, dated 1997).
“And” between values parts separate entries of the source, which are not always exact repeats. Equal values may be shown once. Read-outs that look alike come from different tables or passages of the source.

Legend:
[1] = tested on: 8226/Dox human myeloma cells; assay: Sensitivity of 8226/Dox cells to Vincristine with increasing time after Vincristine exposure; format: cell-based; settings: for Relative Sensitization (fold increase) Day 5: Day 5 after Vincristine exposure; for Relative Sensitization (fold increase) Day 7: Day 7 after Vincristine exposure; for Relative Sensitization (fold increase) Day 9: Day 9 after Vincristine exposure
Protocol: As shown in this example, several oligos which target the MDR1 gene are able to sensitize multidrug-resistant cell lines to the cytotoxic effects of the chemotherapeutic agent Vincristine. […] The cells were then washed and seeded into 96-well plates (quadruplicate replicates) for pulsing with tritiated thymidine 3 days later. Cells were harvested the next day (=4th day after drug treatment). Tritiated thymidine uptake was analyzed by liquid scintillation.
As shown in this example, it was determined that there was an increase in sensitivity of multidrug-resistant 8226/Dox human myeloma cells to Vincristine with increasing time of incubation following initial exposure to Vincristine. The experimental conditions were identical to those utilized in obtaining the data shown in Table 7, except that the present experiment had two additional time points.

[2] = tested on: CEM/VLB10 human leukemia cells; assay: Sensitization of CEM/VLB10 cells to Vincristine by MDR-oligos in 5% oxygen; format: cell-based; settings: 5% oxygen; for IC50: Vincristine IC50 after 4 days with 10 μM oligo, read-out: IC50 dose; for Relative sensitization (fold increase): to Vincristine, 10 μM oligo
Protocol: (§1) As shown in this example, several oligos which target the MDR1 gene are able to sensitize multidrug-resistant cell lines to the cytotoxic effects of the chemotherapeutic agent Vincristine. Tumor cells were treated in vitro with 10 μM of the indicated oligo for 4 days at 37° C., then counted, dispensed into individual tubes, and pulsed with Vincristine at various doses (serial 5-fold dilutions) for 3 hrs. The cells were then washed and seeded into 96-well plates (quadruplicate replicates) for pulsing with tritiated thymidine 3 days later. Cells were harvested the next day (=4th day after drug treatment). Tritiated thymidine uptake was analyzed by liquid scintillation.

[3] = tested on: 8226/Dox human myeloma cells; assay: Sensitization of 8226/Dox cells to Vincristine by MDR-oligos in 5% oxygen; format: cell-based; settings: 5% oxygen; for IC50: Vincristine IC50 after 4 days with 10 μM oligo, read-out: IC50 dose; for Relative sensitization (fold increase): to Vincristine, 10 μM oligo
Protocol: as §1

[4] = tested on: A427 human non-small-cell lung adenocarcinoma cell line; assay: Sensitization of A427 lung cancer cells to etoposide by MRP-oligos; format: cell-based
Protocol: The human non-small-cell lung adenocarcinoma cell line A427 was treated with oligos at various concentrations for 4 days in vitro. The cells then were pulsed with various concentrations of etoposide (range 1.6×10^-4 to 1×10^-6 M) for 3 hrs. Next, cells were trypsinized and seeded by volume into 96-well plates with 12 replicates per treatment condition. Three days later, tritiated thymidine was added and the cells harvested the next day.

[5] = tested on: 8226/Dox cells; assay: Sensitization of 8226/Dox cells to VCR by MDR-aptameric oligonucleotides; format: cell-based, human; settings: compared to media control
[6] = tested on: 8226/Dox cells; assay: Sensitization of 8226/Dox cells to Vincristine by an MRP-oligo and MDR-ODNs; format: cell-based, human; settings: for IC50: Vincristine IC50 after oligo treatment, conditions as Example 2, read-out: IC50 dose; for Relative sensitization (fold increase): to Vincristine, vs medium only
Protocol: as §1
In this example, experimental conditions were identical to those utilized in obtaining the data in Example 2.

[7] = tested on: 8226/Dox4 human myeloma cells; assay: Vincristine IC50 summary after MDR-oligo treatment; format: cell-based; settings: oligo 0.2 μM; compared to media control
Protocol: (§2) In vitro testing of MDR-Oligonucleotides was done on the multidrug-resistant (MDR+) RPMI-8226/Dox4 human multiple myeloma cell line (gift of Dr. William Dalton, Univ. Arizona Cancer Ctr., Tucson). Cells were incubated in vitro for 4 days at 37° C. with MDR-oligos at 0.2 μM final concentration; pulsed 18 hr with serial 5-fold dilutions of chemotherapeutic drug (vincristine) from 1×10^-4 M to 2×10^-10 M. Cells were then washed, and incubated for an additional 4 days. Tritiated thymidine (^3 H-TdR) was added for last 18 hr to measure status of cellular proliferation. Controls included MDR^+ 8226 cells similarly treated with vincristine but pretreated either with (a) control ODNs, or (b) culture medium only.

[8] = tested on: 8226/Dox4 cells; assay: Parsimonious regression model estimates of count and Vincristine IC50; format: cell-based, human; settings: for Estimated Mean Count (cpm): 3H-TdR count at VCR Dose = 0, oligo alone, media only 159,500; for Fold Increase in drug sensitivity: compared to corresponding oligo control (no drug)
Protocol: as §2
The following mathematical/statistical model was used to analyze the effects of oligos and various drug treatments on targeted tumor cells in these studies. The model is based on experiments which generally involve treatment of tumor cells with one of several ODNs or media only, and with several dose levels of an anti-cancer agent (such as, for example, vincristine (VCR)) or media only. Analysis goals were to model the relationship of cell kill to the dose of VCR (for example), and to compare the effects of the various ODNs.
This final model contained 10 regressor variables.
Various estimates of parameters from the parsimonious model are shown in TABLE 13, which contains the model estimate of the count for each ODN with media only; differences here (when compared to "media only" [no ODN]) reflect the cell kill associated with the ODN alone. TABLE 13 also contains an estimate of IC50 values, the dose of vincristine (VCR) which is estimated to produce an expected count which is exactly half that expected with "media only" [no VCR]. While formal statistical comparisons of the IC50 values of the various ODNs is not possible, an ordering of the ODNs by estimated IC50 values is possible.

Molecule: 5(1)mdr: SEQ ID NO 10: CCCTACCTCGCGCTCCTTGGAACGGC (CCCTACCTCGCGCTCCTTGGAACGGC; chemistry not given here)
- Relative Sensitization (fold increase) Day 5 ([1]; oligo 2 μM): 3.4 fold increase
- Relative Sensitization (fold increase) Day 7 ([1]; oligo 2 μM): 26.9 fold increase
- Relative Sensitization (fold increase) Day 9 ([1]; oligo 2 μM): 724 fold increase
- Relative Sensitization (fold increase) Day 5 ([1]; oligo 10 μM): 2.1 fold increase
- Relative Sensitization (fold increase) Day 7 ([1]; oligo 10 μM): 20.5 fold increase
- Relative Sensitization (fold increase) Day 9 ([1]; oligo 10 μM): 423 fold increase
- IC50 [2]: 90 nM
- Relative sensitization (fold increase) [2]: 111 fold increase
- IC50 [3]: 180 nM
- Relative sensitization (fold increase) [3]: 2.5 fold increase

Molecule: 5(2)MRP: SEQ ID NO 43: CGGTGGCGCGGGCGGCGGCGGGCACC (CGGTGGCGCGGGCGGCGGCGGGCACC; chemistry not given here)
- Etoposide (VP-16) Relative Sensitization (fold increase) ([4]; oligo 10 μM): 6 fold increase

Molecule: 5(3)MRP: SEQ ID NO 42: CGGCGGCGGCGGCGCAGGGAGCCGGG (CGGCGGCGGCGGCGCAGGGAGCCGGG; chemistry not given here)
- Etoposide (VP-16) Relative Sensitization (fold increase) ([4]; oligo 10 μM): 5 fold increase

Molecule: COc1cc([C@@H]2c3cc4c(cc3[C@@H](O[C@@H]3O[C@@H]5CO[C@@H](C)O[C@H]5[C@H](O)[C@H]3O)[C@H]3COC(=O)[C@H]23)OCO4)cc(OC)c1O [Etoposide (VP-16), etoposide, reference compound]
- IC50 ([4]; Homo sapiens, A-427, read-out: Etoposide (VP-16) IC50, Media Control (no oligo)): 36000 nM
- IC50 ([4]; read-out: Etoposide (VP-16) IC50, Media Control (no oligo)): 50000 nM and 60000 nM

Molecule: CO[C@@H]1[C@@H](OC(N)=O)[C@@H](O)[C@H](Oc2ccc3c(O)c(NC(=O)c4ccc(O)c(CC=C(C)C)c4)c(=O)oc3c2C)OC1(C)C [Novobiocin, novobiocin, reference compound]
- Etoposide (VP-16) Relative Sensitization (fold increase) ([4]; novobiocin used at the same time as VP-16): 5.0 fold increase
- Etoposide (VP-16) Relative Sensitization (fold increase) ([4]; novobiocin used at the same time as VP-16, listed as novobiocin): about 5 fold increase

Molecule: MDR-APT-1: MDR-aptameric oligonucleotide, SEQ ID NO 88: CCCCTGGCGTTACCTCCTCGTTTCT (CCCCTGGCGTTACCTCCTCGTTTCT; chemistry not given here)
- Fold Increase in Drug Sensitization [5]: 40,000 fold

Molecule: OL(2)MRP: SEQ ID NO 49: CGGTGATGCT GTTCGTGCCC (CGGTGATGCTGTTCGTGCCC; chemistry not given here)
- Etoposide (VP-16) Relative Sensitization (fold increase) ([4]; oligo 10 μM): 2.4 fold increase

Molecule: OL(2)mdr: SEQ ID NO 35: GCAACCAGCA CCCCAGCACC (GCAACCAGCACCCCAGCACC; chemistry not given here)
- IC50 [6]: 300 nM
- Relative sensitization (fold increase) [6]: 3.7 fold increase
- IC50 [2]: 160 nM
- Relative sensitization (fold increase) [2]: 62 fold increase

Molecule: OL(3)MRP: SEQ ID NO 62, position 2848: CCCTGGACCG CTGACGCCCG (CCCTGGACCGCTGACGCCCG; chemistry not given here)
- Etoposide (VP-16) Relative Sensitization (fold increase) ([4]; oligo 10 μM): 5 fold increase

Molecule: OL(3)mdr: SEQ ID NO 37: TGCCCACCAG AGCCAGCGTC (TGCCCACCAGAGCCAGCGTC; chemistry not given here)
- IC50 [6]: 100 nM
- Relative sensitization (fold increase) [6]: 11 fold increase
- IC50 [2]: 200 nM
- Relative sensitization (fold increase) [2]: 50 fold increase

Molecule: OL(4)MRP: SEQ ID NO 76: CGATGCCGAC CTTTTCTCC (CGATGCCGACCTTTTCTCC; chemistry not given here)
- Etoposide (VP-16) Relative Sensitization (fold increase) ([4]; oligo 1 μM): 3 fold increase

Molecule: OL(5)MRP: SEQ ID NO 48: CTGCGGCCCG GAAAACATCA (CTGCGGCCCGGAAAACATCA; chemistry not given here)
- Etoposide (VP-16) Relative Sensitization (fold increase) ([4]; oligo 10 μM): 6 fold increase

Molecule: OL(5)mdr: SEQ ID NO 21: TCTGGACTTT GCCCGCCGCC (TCTGGACTTTGCCCGCCGCC; chemistry not given here)
- IC50 [2]: 150 nM
- Relative sensitization (fold increase) [2]: 67 fold increase

Molecule: OL(6)MRP: SEQ ID NO 60: GGGCCAGGCT CACGCGCTGC (GGGCCAGGCTCACGCGCTGC; chemistry not given here)
- Etoposide (VP-16) Relative Sensitization (fold increase) ([4]; oligo 10 μM): 8 fold increase

Molecule: OL(6A)mdr: SEQ ID NO 2: GTGCTCAGCC CACGCCCCGG (GTGCTCAGCCCACGCCCCGG; chemistry not given here)
- IC50 [6]: 88 nM
- Relative sensitization (fold increase) [6]: 12.5 fold increase

Molecule: OL(10)mdr: SEQ ID NO 11: GCTCCCAGCT TTGCGTGCCC (GCTCCCAGCTTTGCGTGCCC; chemistry not given here)
- Fold-Increase in sensitivity to drug treatment [7]: 40 fold

Molecule: OL(12)mdr: SEQ ID NO 12: GCGCGCTCCG GGCAACATGG (GCGCGCTCCGGGCAACATGG; chemistry not given here)
- Fold-Increase in sensitivity to drug treatment [7]: 200 fold
- Estimated Mean Count (cpm) [8]: 159,500 cpm
- Fold Increase in drug sensitivity [8]: 233 fold

Molecule: OL(12A)mdr: SEQ ID NO 13: CGCGCTCCGGGCAACATGGTCC (CGCGCTCCGGGCAACATGGTCC; chemistry not given here)
- Fold-Increase in sensitivity to drug treatment [7]: 375 fold
- Estimated Mean Count (cpm) [8]: 159,500 cpm
- Fold Increase in drug sensitivity [8]: 414 fold

Molecule: OL(12B)mdr: SEQ ID NO 14: CGCGCTCCGG GCAACATG (CGCGCTCCGGGCAACATG; chemistry not given here)
- Fold-Increase in sensitivity to drug treatment [7]: 40 fold
- Estimated Mean Count (cpm) [8]: 159,500 cpm
- Fold Increase in drug sensitivity [8]: 17.3 fold

Molecule: OL(14)MRP: SEQ ID NO 44: GCGGGTCGGA GCCATCGGCG (GCGGGTCGGAGCCATCGGCG; chemistry not given here)
- Etoposide (VP-16) Relative Sensitization (fold increase) ([4]; oligo 10 μM): 3 fold increase

Molecule: PA(1)mdr: SEQ ID NO 40: GCGGGAGGTGAGTCACTGTCTCC (GCGGGAGGTGAGTCACTGTCTCC; chemistry not given here)
- Relative Sensitization (fold increase) Day 5 ([1]; oligo 2 μM): 2.3 fold increase
- Relative Sensitization (fold increase) Day 7 ([1]; oligo 2 μM): 27 fold increase
- Relative Sensitization (fold increase) Day 9 ([1]; oligo 2 μM): 1309 fold increase
- Relative Sensitization (fold increase) Day 5 ([1]; oligo 10 μM): 6.3 fold increase
- Relative Sensitization (fold increase) Day 7 ([1]; oligo 10 μM): 28 fold increase
- Relative Sensitization (fold increase) Day 9 ([1]; oligo 10 μM): 550 fold increase
- IC50 [2]: 190 nM
- Relative sensitization (fold increase) [2]: 53 fold increase
- IC50 [3]: 28 nM
- Relative sensitization (fold increase) [3]: 16 fold increase

Molecule: SJ(34)mdr: SEQ ID NO 5: TCGAATGAGC TCAGGCTTCC (TCGAATGAGCTCAGGCTTCC; chemistry not given here)
- Fold-Increase in sensitivity to drug treatment [7]: 293 fold

Molecule: SJ(34A)mdr: SEQ ID NO 6: TCGAATGAGC TCAGGCTT (TCGAATGAGCTCAGGCTT; chemistry not given here)
- Fold-Increase in sensitivity to drug treatment [7]: > 7500 fold
- Estimated Mean Count (cpm) [8]: 100,300 cpm
- Fold Increase in drug sensitivity [8]: 188 fold

Molecule: SJ(34C)mdr: SEQ ID NO 8: AGCTCAGGCT TCCTGTGGCA (AGCTCAGGCTTCCTGTGGCA; chemistry not given here)
- Fold-Increase in sensitivity to drug treatment [7]: 2182 fold

Molecule: SJ(36)mdr: SEQ ID NO 39: CCAGGGCTTCTTGGACAACCTA (CCAGGGCTTCTTGGACAACCTA; chemistry not given here)
- IC50 [2]: 160 nM
- Relative sensitization (fold increase) [2]: 62 fold increase
